Assay results reported in patent US20070072897A1, “Phenylaminopropanol derivatives and methods of their use” (Wyeth, priority 2005, published 2007).
Counter-ions that a name gives are not always drawn.

Tests used:
[1] = target: T1, human hNET (Homo sapiens, UniProt P23975); test: Norepinephrine (NE) uptake assay in MDCK-Net6 cells; assay type: cell-based; details: [3H]NE uptake; for EC50: MDCK-Net6 cells stably transfected with hNET; for inhibition at 1 µM: MDCK-Net6 cells, read-out: hNET Percentage inhibition at 1 μM
T1 construct: expressed in transfected cells; host or cells: MDCK (MDCK-Net6)
T1 sequence (P23975 whole entry): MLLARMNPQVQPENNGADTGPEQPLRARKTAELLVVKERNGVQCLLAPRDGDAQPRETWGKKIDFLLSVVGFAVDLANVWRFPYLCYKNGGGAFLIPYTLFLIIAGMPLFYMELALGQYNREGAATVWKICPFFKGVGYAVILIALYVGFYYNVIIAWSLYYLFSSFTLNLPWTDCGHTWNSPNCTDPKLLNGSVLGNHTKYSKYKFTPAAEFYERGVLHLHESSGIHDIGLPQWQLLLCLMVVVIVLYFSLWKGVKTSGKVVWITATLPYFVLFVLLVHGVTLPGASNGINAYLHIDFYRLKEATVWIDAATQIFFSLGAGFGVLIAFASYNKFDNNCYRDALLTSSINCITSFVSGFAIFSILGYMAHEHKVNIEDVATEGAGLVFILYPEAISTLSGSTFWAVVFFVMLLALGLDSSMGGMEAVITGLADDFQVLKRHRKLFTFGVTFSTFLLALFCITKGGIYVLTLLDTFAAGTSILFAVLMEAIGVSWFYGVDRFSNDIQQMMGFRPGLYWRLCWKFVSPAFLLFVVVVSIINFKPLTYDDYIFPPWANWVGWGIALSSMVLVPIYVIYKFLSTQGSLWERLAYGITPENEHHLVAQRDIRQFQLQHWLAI
Protocol: Cells were plated at 300,000/T75 flask and cells were split twice weekly. […] Cells were plated at 250,000 cells/T75 flask and split twice weekly.
Norepinephrine (NE) Uptake Assay
On day 1, cells were plated at 3,000 cells/well in growth medium and maintained in a cell incubator (37° C., 5% CO2). On day 2, growth medium was replaced with 200 μl of assay buffer (25 mM HEPES; 120 mM NaCl; 5 mM KCl; 2.5 mM CaCl2; 1.2 mM MgSO4; 2 mg/ml glucose (pH 7.4, 37° C.)) containing 0.2 mg/ml ascorbic acid and 10 μM pargyline. Plates containing cells with 200 μl of assay buffer were equilibrated for 10 minutes at 37° C. prior to addition of compounds. A stock solution of desipramine was prepared in DMSO (10 mM) and delivered to triplicate wells containing cells for a final test concentration of 1 μM. Data from these wells were used to define non-specific NE uptake (minimum NE uptake). Test compounds were prepared in DMSO (10 mM) and diluted in assay buffer according to test range (1 to 10,000 nM). Twenty-five microliters of assay buffer (maximum NE uptake) or test compound were added directly to triplicate wells containing cells in 200 μl of assay buffer. The cells in assay buffer with test compounds were incubated for 20 minutes at 37° C. […] The reaction was terminated by decanting the supernatant from the plate. The plates containing cells were washed twice with 200 μl assay buffer (37° C.) to remove free radioligand. The plates were then inverted, left to dry for 2 minutes, then reinverted and air-dried for an additional 10 minutes. […] After cell lysis, 75 μl of scintillation cocktail was added to each well and the plates were sealed with film tape. The plates were returned to the shake table and vigorously shaken for a minimum of 10 minutes to ensure adequate partitioning of organic and aqueous solutions. The plates were counted in a Wallac Microbeta counter (PerkinElmer) to collect the raw cpm data.
For each experiment, a data stream of cpm values collected from the Wallac Microbeta counter was downloaded to a Microsoft Excel statistical application program. Calculations of EC50 values were made using the transformed-both-sides logistic dose response program written by Wyeth Biometrics Department.

[2] = target: T2, human 5-HT2A receptor (Homo sapiens, UniProt P28223); test: 5-HT2A FLIPR assay (calcium response to DOI) in CHO cells; assay type: cell-based; details: for IC50: antagonist inhibition of 3 nM DOI stimulation, CHO cells, FLIPR; for inhibition at 1 µM: CHO, read-out: 5-HT2A Percentage inhibition at 1 μM
T2 construct: expressed in transfected cells; host or cells: CHO
T2 sequence (P28223 whole entry): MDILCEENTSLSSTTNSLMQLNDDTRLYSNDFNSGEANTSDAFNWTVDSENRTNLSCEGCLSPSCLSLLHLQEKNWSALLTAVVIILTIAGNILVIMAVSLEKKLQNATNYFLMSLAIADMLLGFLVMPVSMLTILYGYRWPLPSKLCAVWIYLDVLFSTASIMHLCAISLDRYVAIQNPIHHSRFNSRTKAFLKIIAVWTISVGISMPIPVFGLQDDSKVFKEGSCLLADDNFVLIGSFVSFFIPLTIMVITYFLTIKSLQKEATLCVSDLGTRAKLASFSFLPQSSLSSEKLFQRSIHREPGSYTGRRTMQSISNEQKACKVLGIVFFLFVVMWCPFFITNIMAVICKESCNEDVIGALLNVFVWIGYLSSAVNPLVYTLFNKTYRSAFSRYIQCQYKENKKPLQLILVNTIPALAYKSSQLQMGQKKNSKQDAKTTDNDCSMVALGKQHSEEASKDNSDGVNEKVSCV
Protocol: Cells are washed with PBS without Ca^2+ and 3 mL Trypsin is added to dissociate cells. After 3 minute incubation, 7 mL Trypsin Neutralizing Solution is added. Cells are then aspirated from flask and mixed in a 50 mL conical tube. 10 μL sample is used to count cells on a hemacytometer. […] Two 96-well drug plates are prepared for each cell plate. Plate 1 will contain compounds to be tested and plate 2 will contain the agonist DOI (3 nM) to activate a calcium response. Specific details of compound preparation are listed below. […] Outside wells are not used due to an edge effect seen in these cells. The reference compounds DOI and 5-HT are used as standard 5HT agonists. […] Standards for plate one are Vehicle, 1 μM DOI, and 3 nM MDL. […] On the day of the assay, test compound solutions of appropriate concentrations are diluted in assay buffer as described for single concentration testing. This procedure is followed to ensure that the solvent concentration is consistent across dilutions. The typical concentration testing range of compounds is 10^−10—10^−5 M in half log or full log increments. A 10 μM DOI stock is diluted to 60 nM and added to the respective wells. The pipeting station of the FLIPR will make an additional 20-fold dilution for a final concentration of 3 nM. Standards for this plate include Vehicle and 3 nM DOI. Contents of dye vial (Molecular Devices #R8090) are dissolved in 100 mL of 1×HBSS supplemented with 20 mM HEPES. Aliquots can be frozen at −20° C. for up to one week for future use. On the day of assay, dye is thawed and diluted to half concentration. […] Cells are allowed to adhere for 24 hours in 96-well plates. […] Cell, compound and DOI plates are loaded into the FLIPR machine. The baseline fluorescence level is read once every second for 1 minute. Compound (10 μL) is transferred from the compound plate to the cells and the fluorescence level recorded every 6 seconds for 2 minutes to determine any agonist activity. Baseline fluorescence is recorded again every second for 10 seconds. For antagonist determination, 10 μL of 3 nM DOI is transferred from the DOI plate to the cells and the fluorescence level recorded every 6 seconds for 5 minutes. The pipetting unit of the FLIPR machine completes all transfers. […] The data are log transformed prior to analysis.

SMILES | EC50 [1] | IC50 [2] | inhibition at 1 µM [2] | inhibition at 1 µM [1]
CNC[C@@H](O)[C@H](c1ccccc1)n1ccc2cc(OCc3cccc(Cl)c3)ccc21 [Example 9, (1S,2R)-1-{5-[(3-chlorobenzyl)oxy]-1H-indol-1-yl}-3-(methylamino)-1-phenylpropan-2-ol hydrochloride] | 89 nM |  | 39% | 
CNC[C@@H](O)[C@H](c1ccccc1)n1ccc2cc(Oc3ccccc3)ccc21 [Example 19, (1S,2R)-3-(methylamino)-1-[5-(phenoxy)-1H-indol-1-yl]-1-phenylpropan-2-ol hydrochloride] |  |  | 39% | 27%
CNC[C@@H](O)[C@H](c1ccccc1)n1ccc2c(Oc3ccccc3)cccc21 [Example 20, (1S,2R)-3-(methylamino)-1-[4-(phenoxy)-1H-indol-1-yl]-1-phenylpropan-2-ol hydrochloride] | 227 nM |  | 30% | 
CNC[C@@H](O)[C@H](c1ccccc1)n1ccc2c(-c3ccccc3)cccc21 [Example 21, (1S,2R)-3-(methylamino)-1-phenyl-1-(4-phenyl-1H-indol-1-yl)propan-2-ol hydrochloride] |  |  | 27% | 56%
CNC[C@@H](O)[C@H](c1ccccc1)n1ccc2ccc(-c3ccccc3)cc21 [Example 22, (1S,2R)-3-(methylamino)-1-phenyl-1-(6-phenyl-1H-indol-1-yl)propan-2-ol hydrochloride] | 35 nM |  | 16% | 
CNC[C@@H](O)[C@H](c1cccc(F)c1)n1ccc2cc(OCc3ccccc3)ccc21 [Example 24, (1S,2R)-1-[5-(benzyloxy)-1H-indol-1-yl]-1-(3-fluorophenyl)-3-(methylamino)propan-2-ol hydrochloride] | 36 nM |  | 20% | 
CNC[C@@H](O)[C@H](c1ccccc1)N1CCc2cc(OCc3ccccc3)ccc21 [Example 26, (1S,2R)-1-[5-(benzyloxy)-2,3-dihydro-1H-indol-1-yl]-3-(methylamino)-1-phenylpropan-2-ol hydrochloride] | 45 nM |  | 23% | 
CNC[C@@H](O)[C@H](c1ccccc1)N1C(=O)C2(CCCCC2)c2cc(Cl)ccc21 [Example 27, 5′-chloro-1′-[(1S,2R)-2-hydroxy-3-(methylamino)-1-phenylpropyl]spiro[cyclohexane-1,3′-indol]-2′(1′H)-one hydrochloride] | 89 nM | 423 nM |  | 
CNC[C@@H](O)[C@H](c1ccccc1)N1C(=O)C2(CCCCC2)c2ccc(Cl)cc21 [Example 28, 6′-Chloro-1′-[(1S,2R)-2-hydroxy-3-(methylamino)-1-phenylpropyl]spiro[cyclohexane-1,3′-indol]-2′(1′H)-one hydrochloride] | 448 nM | 213 nM |  | 
CNC[C@@H](O)[C@H](c1ccccc1)N1C(=O)C2(CCCCC2)c2cc(F)ccc21 [Example 30, 5′-fluoro-1′-[(1S,2R)-2-hydroxy-3-(methylamino)-1-phenylpropyl]spiro[cyclohexane-1,3′-indol]-2′(1′H)-one hydrochloride] | 41 nM | 283 nM |  | 

The next lines start with results.

EC50 [1] | IC50 [2] | SMILES | inhibition at 1 µM [2] | inhibition at 1 µM [1]
32 nM | 281 nM | CNC[C@@H](O)[C@H](c1ccccc1)n1ccc2cc(OCc3ccc(OC)cc3)ccc21 [Example 7, (1S,2R)-1-{5-[(4-methoxybenzyl)oxy]-1H-indol-1-yl}-3-(methylamino)-1-phenylpropan-2-ol hydrochloride] |  | 
147 nM | 658 nM | CNC[C@@H](O)[C@H](c1ccccc1)n1ccc2cc(OCc3ccccc3Cl)ccc21 [Example 8, (1S,2R)-1-{5-[(2-chlorobenzyl)oxy]-1H-indol-1-yl}-3-(methylamino)-1-phenylpropan-2-ol hydrochloride] |  | 
67 nM | 712 nM | CNC[C@@H](O)[C@H](c1ccccc1)n1ccc2cc(OCc3ccc(Cl)cc3)ccc21 [Example 10, (1S,2R)-1-{5-[(4-chlorobenzyl)oxy]-1H-indol-1-yl}-3-(methylamino)-1-phenylpropan-2-ol hydrochloride] |  | 
52 nM | 1260 nM | CNC[C@@H](O)[C@H](c1ccccc1)n1ccc2cc(OCc3ccccc3F)ccc21 [Example 11, (1S,2R)-1-{5-[(2-fluorobenzyl)oxy]-1H-indol-1-yl}-3-(methylamino)-1-phenylpropan-2-ol hydrochloride] |  | 
36 nM | 979 nM | CNC[C@@H](O)[C@H](c1ccccc1)n1ccc2cc(OCc3cccc(F)c3)ccc21 [Example 12, (1S,2R)-1-{5-[(3-fluorobenzyl)oxy]-1H-indol-1-yl}-3-(methylamino)-1-phenylpropan-2-ol hydrochloride] |  | 
31 nM | 468 nM | CNC[C@@H](O)[C@H](c1ccccc1)n1ccc2cc(OCc3ccc(F)cc3)ccc21 [Example 13, (1S,2R)-1-{5-[(4-fluorobenzyl)oxy]-1H-indol-1-yl}-3-(methylamino)-1-phenylpropan-2-ol hydrochloride] |  | 
109 nM | 442 nM | CNC[C@@H](O)[C@H](c1ccccc1)n1ccc2cc(OCc3ccccc3C)ccc21 [Example 14, (1S,2R)-3-(methylamino)-1-{5-[(2-methylbenzyl)oxy]-1H-indol-1-yl}-1-phenylpropan-2-ol hydrochloride] |  | 
88 nM | 809 nM | CNC[C@@H](O)[C@H](c1ccccc1)n1ccc2cc(OCc3cccc(C)c3)ccc21 [Example 15, (1S,2R)-3-(methylamino)-1-{5-[(3-methylbenzyl)oxy]-1H-indol-1-yl}-1-phenylpropan-2-ol hydrochloride] |  | 
37 nM | 4120 nM | CNC[C@@H](O)[C@H](c1ccccc1)n1ccc2cc(OCc3ccc(C)cc3)ccc21 [Example 16, (1S,2R)-3-(methylamino)-1-{5-[(4-methylbenzyl)oxy]-1H-indol-1-yl}-1-phenylpropan-2-ol hydrochloride] |  | 
219 nM | 1200 nM | CNC[C@@H](O)[C@H](c1ccccc1)n1ccc2cc(OCCc3ccccc3)ccc21 [Example 18, (1S,2R)-3-(methylamino)-1-phenyl-1-[5-(2-phenylethoxy)-1H-indol-1-yl]propan-2-ol hydrochloride] |  | 
 | 2600 nM | CNC[C@@H](O)[C@H](c1ccccc1)n1ccc2cccc(-c3ccccc3)c21 [Example 23, (1S,2R)-3-(methylamino)-1-phenyl-1-(7-phenyl-1H-indol-1-yl)propan-2-ol hydrochloride] |  | 48%
43 nM | 106 nM | CNC[C@@H](O)[C@H](c1ccccc1)N1C(=O)C2(CCCCC2)c2ccc(F)cc21 [Example 29, 6′-fluoro-1′-[(1S,2R)-2-hydroxy-3-(methylamino)-1-phenylpropyl]spiro[cyclohexane-1,3′-indol]-2′(1′H)-one hydrochloride] |  | 
